#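 Each compound was tested at five concentrations against cells in 96-well plates for 48 hours. The concentration for full growth arrest is given as TGI.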
# Tests used:
# Assay in all cases: inhibition of tumour cell growth, NCI panel, 48 h
# [1] = tested on: HCT-116 colon
# [2] = tested on: BT-549 breast
# [3] = tested on: HT29 colon
# [4] = tested on: NCI-H23 lung
# [5] = tested on: UACC-257 melanoma
# [6] = tested on: SK-MEL-28 melanoma
# [7] = tested on: KM12 colon
# [8] = tested on: UACC-62 melanoma
# [9] = tested on: SR leukemia
# [10] = tested on: ACHN renal
# [11] = tested on: IGROV1 ovarian
# [12] = tested on: M14 melanoma
# [13] = tested on: U251 CNS
# [14] = tested on: SNB-75 CNS
# [15] = tested on: HCT-15 colon
# [16] = tested on: HCC-2998 colon
# [17] = tested on: NCI-H226 lung
# [18] = tested on: CAKI-1 renal
# [19] = tested on: RXF 393 renal
# [20] = tested on: SK-MEL-5 melanoma
# [21] = tested on: MOLT-4 leukemia
# [22] = tested on: SN12C renal
# [23] = tested on: A549 NSCLC
# [24] = tested on: COLO 205 colon
# [25] = tested on: MCF7 breast
# [26] = tested on: HS 578T breast
# [27] = tested on: HOP-92 NSCLC
# [28] = tested on: TK-10 renal
# [29] = tested on: SK-OV-3 ovarian
# [30] = tested on: LOX IMVI melanoma
# [31] = tested on: HOP-62 NSCLC
# [32] = tested on: MALME-3M melanoma
# [33] = tested on: NCI-H460 lung
# [34] = tested on: SK-MEL-2 melanoma
# [35] = tested on: SW-620 colon
# [36] = tested on: MDA-N
# [37] = tested on: SF-539 CNS
# [38] = tested on: OVCAR-5 ovarian
# [39] = tested on: A498 renal
# [40] = tested on: OVCAR-4 ovarian
# [41] = tested on: OVCAR-3 ovarian
# [42] = tested on: MDA-MB-435
# [43] = tested on: UO-31 renal
# [44] = tested on: NCI/ADR-RES ovarian
# [45] = tested on: CCRF-CEM leukemia
# [46] = tested on: HL-60(TB) leukemia
# [47] = tested on: PC-3 prostate
# [48] = tested on: SNB-19 CNS
# [49] = tested on: 786-0 renal
# [50] = tested on: OVCAR-8 ovarian
# [51] = tested on: SF-295 CNS
# [52] = tested on: EKVX NSCLC
# [53] = tested on: MDA-MB-231 breast
# [54] = tested on: NCI-H522 lung
# [55] = tested on: DU-145 prostate
# [56] = tested on: SF-268 CNS
# [57] = tested on: K-562 leukemia
# [58] = tested on: T-47D breast
smiles,measurement,setting,value
O=C(N=Nc1c(O)[nH]c2c(Cl)cc(Cl)cc12)C(=O)Nc1cccc(C(F)(F)F)c1,TGI,[1],> 100 µM
same,TGI,[2],> 100 µM
same,TGI,[3],> 100 µM
same,TGI,[4],> 100 µM
same,TGI,[5],> 100 µM
same,TGI,[6],> 100 µM
same,TGI,[7],> 100 µM
same,TGI,[8],> 100 µM
same,TGI,[9],> 100 µM
same,TGI,[10],> 100 µM
same,TGI,[11],> 100 µM
same,TGI,[12],> 100 µM
same,TGI,[13],> 100 µM
same,TGI,[14],> 100 µM
same,TGI,[15],> 100 µM
same,TGI,[16],> 100 µM
same,TGI,[17],> 100 µM
same,TGI,[18],> 100 µM
same,TGI,[19],> 100 µM
same,TGI,[20],> 100 µM
same,TGI,[21],> 100 µM
same,TGI,[22],> 100 µM
same,TGI,[23],> 100 µM
same,TGI,[24],> 100 µM
same,TGI,[25],> 100 µM
same,TGI,[26],> 100 µM
same,TGI,[27],> 100 µM
same,TGI,[28],> 100 µM
same,TGI,[29],> 100 µM
same,TGI,[30],> 100 µM
same,TGI,[31],> 100 µM
same,TGI,[32],> 100 µM
same,TGI,[33],> 100 µM
same,TGI,[34],> 100 µM
same,TGI,[35],> 100 µM
same,TGI,[36],> 100 µM
same,TGI,[37],> 100 µM
same,TGI,[38],> 100 µM
same,TGI,[39],> 100 µM
same,TGI,[40],> 100 µM
same,TGI,[41],> 100 µM
same,TGI,[42],> 100 µM
same,TGI,[43],> 100 µM
same,TGI,[44],> 100 µM
same,TGI,[45],> 100 µM
same,TGI,[46],> 100 µM
same,TGI,[47],> 100 µM
same,TGI,[48],> 100 µM
same,TGI,[49],> 100 µM
same,TGI,[50],> 100 µM
same,TGI,[51],> 100 µM
same,TGI,[52],> 100 µM
same,TGI,[53],> 100 µM
Cc1c(S(=O)(=O)/N=C(\NO)Nc2ccc(Cl)cc2)sc2ccc(Cl)cc12,TGI,[1],27.4 µM
same,TGI,[2],31.7 µM
same,TGI,[3],34.3 µM
same,TGI,[4],33.6 µM
same,TGI,[5],33.3 µM
same,TGI,[54],22.7 µM
same,TGI,[6],32.9 µM
same,TGI,[7],41.7 µM
same,TGI,[8],29.8 µM
same,TGI,[10],28.5 µM
same,TGI,[11],27.5 µM
same,TGI,[12],31.2 µM
same,TGI,[13],31.5 µM
same,TGI,[14],41.9 µM
same,TGI,[15],30.6 µM
same,TGI,[17],38.1 µM
same,TGI,[18],34.3 µM
same,TGI,[19],47.1 µM
same,TGI,[20],27.4 µM
same,TGI,[21],> 100 µM
same,TGI,[22],35.5 µM
same,TGI,[23],33.8 µM
same,TGI,[24],30.9 µM
same,TGI,[26],44.3 µM
same,TGI,[27],28.8 µM
same,TGI,[28],35.5 µM
same,TGI,[29],31.2 µM
same,TGI,[30],32.2 µM
same,TGI,[31],36.7 µM
same,TGI,[32],33.8 µM
same,TGI,[33],76.8 µM
same,TGI,[34],34.4 µM
same,TGI,[35],63.1 µM
same,TGI,[55],53.7 µM
same,TGI,[36],32.9 µM
same,TGI,[37],42.1 µM
same,TGI,[56],35.6 µM
same,TGI,[38],33.3 µM
same,TGI,[40],38.3 µM
same,TGI,[41],25.8 µM
same,TGI,[42],33.7 µM
same,TGI,[43],52.5 µM
same,TGI,[57],> 100 µM
same,TGI,[58],89.9 µM
same,TGI,[44],37.9 µM
same,TGI,[45],> 100 µM
same,TGI,[46],47.3 µM
same,TGI,[47],31.1 µM
same,TGI,[48],35.2 µM
same,TGI,[49],32.3 µM
same,TGI,[50],32.2 µM
same,TGI,[51],41 µM
same,TGI,[52],25.1 µM
same,TGI,[53],42.7 µM
c1ccc2sc(C3(N4CCCCCC4)CCCCC3)cc2c1,TGI,[1],52.1 µM
same,TGI,[2],61.2 µM
same,TGI,[3],36.8 µM
same,TGI,[4],41.5 µM
same,TGI,[5],50 µM
same,TGI,[54],36.4 µM
same,TGI,[6],55 µM
same,TGI,[7],31.8 µM
same,TGI,[8],45.7 µM
same,TGI,[10],83.8 µM
same,TGI,[11],> 100 µM
same,TGI,[12],53.6 µM
same,TGI,[13],35 µM
same,TGI,[14],62.1 µM
same,TGI,[15],53.6 µM
same,TGI,[16],29.4 µM
same,TGI,[17],42.9 µM
same,TGI,[18],> 100 µM
same,TGI,[19],33.4 µM
same,TGI,[20],33.3 µM
same,TGI,[21],31.5 µM
same,TGI,[22],43.7 µM
same,TGI,[23],> 100 µM
same,TGI,[24],30 µM
same,TGI,[25],32.9 µM
same,TGI,[26],44.7 µM
same,TGI,[27],80 µM
same,TGI,[28],53.4 µM
same,TGI,[29],> 100 µM
same,TGI,[30],43.4 µM
same,TGI,[31],86.8 µM
same,TGI,[33],45.1 µM
same,TGI,[35],36.6 µM
same,TGI,[55],> 100 µM
same,TGI,[36],97.6 µM
same,TGI,[37],46.1 µM
same,TGI,[56],52.5 µM
same,TGI,[38],37.4 µM
same,TGI,[39],36.8 µM
same,TGI,[40],> 100 µM
same,TGI,[41],38.6 µM
same,TGI,[42],71.1 µM
same,TGI,[43],56.2 µM
same,TGI,[57],33.1 µM
same,TGI,[44],55.2 µM
same,TGI,[45],33.3 µM
same,TGI,[46],40.9 µM
same,TGI,[48],44.6 µM
same,TGI,[49],42.9 µM
same,TGI,[50],> 100 µM
same,TGI,[51],59.1 µM
same,TGI,[52],43.9 µM
same,TGI,[53],47.5 µM

# — PubChem BioAssay (NCI)
